Data set [1] has as its system SH-SY5Y cells. In words: Neuroprotection against H2O2-induced toxicity, LDH assay. The data set is classed as cell-based. The settings on record: 300 µM hydrogen peroxide, compounds at 10 or 50 µM. As to the method:
(§1) For neuroprotection studies, a cellular model of neuroblastoma SH-SY5Y cells exposed to hydrogen peroxide was applied. Lactate dehydrogenase (LDH) release was used as a measure of cell death. First, the compounds (11a, 11c, 12, 13, 20a, 21, and 22) were tested for their possible intrinsic neurotoxicity to the SH-SY5Y cell line (see Supplementary Figure S1). […] All other compounds were tested for cytoprotective effects against H2O2-induced toxicity in SH-SY5Y cells.
(§2) Neuroblastoma SH-SY5Y cells were seeded at the density of 20,000 cells per well to 96-well plates one day before the experiment. Twelve hours prior to start of the assay, cell culture medium was replaced with the fresh portion of reduced serum (1%) medium. Tested compounds were added to the cells at the final concentration of 10 or 50 µM in 1% DMSO. In the neuroprotection studies, hydrogen peroxide, at a final concertation of 300 µM, was pipetted to the assay plate 1 h after tested compounds addition. Cell death, represented by the release of LDH through the perforated cell membrane, was measured following 14 h incubation of cells with the compounds and hydrogen peroxide. LDH levels in cell culture medium were determined using fluorometric CytoTox-ONE Homogeneous Membrane Integrity Assay (Promega Corporation, Madison, WI, USA), according to manufacturer’s instructions.
Figure 3 The ability of tested compounds to reduce the cytotoxicity of 300 μM hydrogen peroxide (HP) on dopaminergic neuronal cells (SH-SY5Y) as judged by LDH assay. Data represent the mean of two experiments performed in triplicate. Results are presented as percent of cytotoxicity induced by 300 µM hydrogen peroxide (HP) ± SEM. NT–vehicle control (1% DMSO).

A further data set addresses T1, rat A2A (rA2A) ARs (Rattus norvegicus, UniProt P30543).
T1 construct: rat brain striatal membrane preparations for A2A AR assays; tissue Pel Freez; host or cells: rat brain striatum membranes
In words: Radioligand binding [3H]MSX-2, rat brain striatal membranes. The settings on record: read-out: rA2A [3H]MSX-2 % inhibition ± SEM at 10 µM.

For data set [2], the system named is SH-SY5Y cells. In words: Intrinsic neurotoxicity, LDH release from SH-SY5Y cells. Particulars: 50 µM. The data set is classed as cell-based. As to the method:
as §1, §2
Supplementary Figure 1. […]
In general terms: LDH in the medium is a marker of cell lysis.

Data set [3] deals with human dopamine D2L receptors (Homo sapiens, UniProt P14416). In words: cAMP accumulation assay in forskolin-stimulated HEK293 cells expressing hD2R. The data set is classed as cell-based.
Chain of human dopamine D2L receptors (P14416 whole entry): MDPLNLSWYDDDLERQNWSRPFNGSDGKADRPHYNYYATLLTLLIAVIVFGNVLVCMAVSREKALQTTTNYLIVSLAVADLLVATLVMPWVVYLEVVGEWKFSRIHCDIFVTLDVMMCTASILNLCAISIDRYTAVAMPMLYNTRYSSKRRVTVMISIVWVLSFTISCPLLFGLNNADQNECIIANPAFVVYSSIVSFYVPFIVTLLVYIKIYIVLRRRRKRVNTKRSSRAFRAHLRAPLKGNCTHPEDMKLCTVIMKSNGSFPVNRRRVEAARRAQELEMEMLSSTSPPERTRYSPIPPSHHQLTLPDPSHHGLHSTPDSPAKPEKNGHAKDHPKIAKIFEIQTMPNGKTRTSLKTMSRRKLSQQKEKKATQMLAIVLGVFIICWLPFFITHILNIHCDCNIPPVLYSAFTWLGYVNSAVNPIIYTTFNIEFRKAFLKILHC
Description: Briefly, HEK293 cells stably expressing human D2LR were incubated (30 min, room temperature) with forskolin (1 μM) and evaluated compounds in triplicates (7 appropriate concentrations in a range spanning over 6 log units) in presence of phosphodiesterase inhibitor (RO-201724, 100 μM). Subsequently, intracellular cAMP accumulation was measured with homogenous TR-FRET immunoassay, using LANCE Ultra cAMP kit (PerkinElmer) and following manufacturer’s instructions. TR-FRET signal, inversely proportional to cAMP concentration in sample, was measured using Infinite M1000 Pro microplate reader (Tecan, Männedorf, Switzerland). Sigmoidal dose–response curve fitting was performed, using GraphPad Prism™ software (version 5.01, San Diego, CA, USA).

T1 sequence (P30543 whole entry): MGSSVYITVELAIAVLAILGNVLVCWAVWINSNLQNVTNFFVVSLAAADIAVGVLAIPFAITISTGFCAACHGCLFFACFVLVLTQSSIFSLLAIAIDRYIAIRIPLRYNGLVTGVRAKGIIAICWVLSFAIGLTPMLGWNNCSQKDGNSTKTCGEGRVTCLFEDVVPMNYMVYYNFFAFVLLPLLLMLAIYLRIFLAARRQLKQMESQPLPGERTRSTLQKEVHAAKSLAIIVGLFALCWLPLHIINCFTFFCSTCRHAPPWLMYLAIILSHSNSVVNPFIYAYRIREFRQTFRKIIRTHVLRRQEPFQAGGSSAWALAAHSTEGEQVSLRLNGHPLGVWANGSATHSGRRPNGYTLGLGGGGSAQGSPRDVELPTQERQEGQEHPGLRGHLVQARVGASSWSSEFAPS

For `CCCn1c(NCCc2ccc(O)c(O)c2)nc2c1c(=O)n(C)c(=O)n2C` [Compound 11c, 8-((3,4-Dihydroxyphenethyl)amino)-1,3-dimethyl-7-propyl-3,7-dihydro-1H-purine-2,6-dione], in the data set on SH-SY5Y cells [1], the “dose dependence of cytoprotective effect” value is listed as “Dose-dependent responses”.

The term inhibition denotes the drop in the measured response relative to a control, in per cent. With `CCCCCCn1c(NCCc2ccc(O)c(O)c2)nc2c1c(=O)n(C)c(=O)n2C` [Compound 11i, 8-((3,4-Dihydroxyphenethyl)amino)-7-hexyl-1,3-dimethyl-3,7-dihydro-1H-purine-2,6-dione], the inhibition at 10 µM at rat A2A (rA2A) ARs was found to be 14%.

In the case of `Cn1c(=O)c2c(nc(NCCc3ccc(O)c(O)c3)n2CCc2ccccc2)n(C)c1=O` [Compound 11k, 8-((3,4-Dihydroxyphenethyl)amino)-1,3-dimethyl-7-phenethyl-3,7-dihydro-1H-purine-2,6-dione], on rat A2A (rA2A) ARs, the inhibition at 10 µM worked out at 44%.

On to `CCCn1c(=O)c2c(nc(NCCc3ccc(O)c(O)c3)n2CCC)n(CCC)c1=O` [Compound 12, 8-((3,4-Dihydroxyphenethyl)amino)-1,3,7-tripropyl-3,7-dihydro-1H-purine-2,6-dione], for which, in the data set on SH-SY5Y cells [1], the “cytoprotective effect against H2O2-induced toxicity (LDH release)” value (“cytoprotective effect … (LDH release)” for short) is “most potent” and the “dose dependence of cytoprotective effect” value is “Dose-dependent responses”.

The EC50 is the concentration giving half of the maximal effect. Turning to `CCCCn1c(=O)c2c(nc(NCCc3ccc(O)c(O)c3)n2CCC)n(CCCC)c1=O` [Compound 13, 1,3-Dibutyl-8-((3,4-dihydroxyphenethyl)amino)-7-propyl-3,7-dihydro-1H-purine-2,6-dione], in the data set on SH-SY5Y cells [2], the “intrinsic neurotoxicity to SH-SY5Y cell line (LDH release)” value is listed as “significant cytotoxicity”. For the same compound, the 50% effective concentration (EC50) in data set [3] (forskolin-stimulated HEK293 cells, human D2L, read-out: EC50, functional cAMP assay) worked out at 11.3 µM. The “intrinsic activity at D2R” value in data set [3] (functional cAMP assay) is “agonistic properties”.

`CCCn1c(=O)c2c(nc3n2CCCN3CCc2ccc(O)c(O)c2)n(CCC)c1=O` [Compound 21, 9-(3,4-Dihydroxyphenethyl)-1,3-dipropyl-6,7,8,9-tetrahydropyrimido[2,1-f]purine-2,4(1H,3H)-dione]: in the data set on SH-SY5Y cells [1], the “cytoprotective effect … (LDH release)” value is on record as “most potent” and the “dose dependence of cytoprotective effect” value is recorded as “Dose-dependent responses”.

Turning to `CCCCn1c(=O)c2c(nc3n2CCCN3CCc2ccc(O)c(O)c2)n(CCCC)c1=O` [Compound 22, 1,3-Dibutyl-9-(3,4-dihydroxyphenethyl)-6,7,8,9-tetrahydropyrimido[2,1-f]purine-2,4(1H,3H)-dione], the “cytoprotective effect … (LDH release)” value with SH-SY5Y cells [1] was “most potent”.

For the origin of these results see paper PMC10377586 (Biomolecules, 2023).
